# Data from patent EP1105728B1, “MODULATING MULTIPLE LINEAGE KINASE PROTEINS” (CEPHALON, INC., priority 1998, dated 2000).
# Read-outs that look alike come from different tables or passages of the source.
# Test system: TNF-α
# Experiment: Induction of TNF-α by LPS in THP-1 cells (ELISA)
# Type: cell-based
# Settings: Homo sapiens
# Procedure: THP-1 cells were grown in RPMI 1640 medium supplemented with 10% fetal bovine serum. LPS (E.coli serotype 0111.B4, TCA extracted) was purchased from Sigma and dissolved in PBS. ELISA kits for assaying IL-1 and TNF-α were purchased from Boerhinger-Mannheim and assays on THP-1 culture medium were performed as directed by the manufacturer. Standard curves according to directions were obtained with each assay.
# Experiments were performed in 12 well culture plates with either 1 or 2 ml of THP-1 cells at 4 X 10^5 cells/ml. IL-1 and TNF-α were induced by the addition of LPS to the culture medium and the medium collected at various times thereafter for cytokine assay. Cells were removed by centrifugation and the supernatants frozen at -70°C until assay. To minimize costs experiments were performed in duplicate cultures and the duplicate supernatants were pooled after centrifugation. Each pooled supernatant was assayed in duplicate. Stock solutions of indolo- and fused pyrrolocarbazoles in 100% DMSO were diluted to the desired concentrations in either medium containing 10% fetal bovine serum or in medium containing 0.5 mg/ml BSA. Unless otherwise stated, compounds were added to the THP-1 cells 1 hr prior to the addition of LPS.
smiles,measurement,setting,value
CCSCc1ccc2c(c1)c1c3c(c4c5cc(CSCC)ccc5n5c4c1n2C1CC(O)(C(=O)OC)C5(C)O1)CNC3=O (centres unmarked) [III-3],IC50,"THP-1, LPS 2 µg/ml, serum-free medium, read-out: THP-1 Cells TNF-α IC50",29 nM
same,IC50,"THP-1 cells, medium containing 10% fetal bovine serum, read-out: IC50 inhibition of the induction of TNF-α",139 nM
